In test [1] the test system is human PD-L1 promoter. Put plainly: Inhibitory effect of luciferase expression under control of PD-L1 promoter (A549/PD-L1luc luciferase assay, corrected by total protein). Type of test: cell-based. The conditions noted are these: A549/PD-L1luc cells, 48±4 hours, RLU corrected by total protein amount, read-out: IC50 (50% inhibition value of luciferase expression). The text has this:
A reporter vector, pPD-L1luc obtained by the insertion of a human PD-L1 promoter sequence (−2097 to 51) into the multiple cloning site of pGL-3 vector basic (Promega) expresses luciferase under the control of PD-L1 promoter when transfected into animal cells. The pPD-L1luc was transfected into a human non-small cell lung cancer-derived cell line A549 together with pPUR (Clontech) that expresses a puromycin resistance gene (puromycin-N-acetyl-transferase gene), and then cells expressing luciferase which could grow in a puromycin-supplemented medium were selected. The selected cells were named “A549/PD-L1luc cells” and used for luciferase assay as described below.
A test compound was added into a culture liquid containing A549/PD-L1luc cells to observe the influence of the test compound on the amount of luciferase expressed in the cells. Here, it can be considered that when the test compound has a cell cytotoxicity or cell growth inhibitory effect, the total expression level of luciferase is recued due to a reduction in the number of living cells that depends on the concentration of the test compound, and thus the inhibitory effect of luciferase expression under the control of PD-L1 promoter of the test compound cannot be properly evaluated.
A549/PD-L1luc cells were suspended in DMEM containing 10% fetal calf serum (FCS) and 1% penicillin/streptomycin (P/S) (hereinafter, referred to as “DMEM medium”) at 3×10^4 cells/mL to obtain a cell suspension, and the cell suspension was dispensed into each well of a 96-well plate in an amount of 100 μL. In order to perform the assay in triplicate, 3 wells were prepared for control group, and 3 wells were prepared for test compound-treated groups at each concentration. After the dispensation, the 96-well plate was incubated in a CO2 incubator (at 37° C. and 5% CO2) for 24±4 hours.
Each compound of Examples 1 to 6 and Comparative Example 1 was dissolved in dimethylsulfoxide (DMSO) to obtain 50 mmol/L of a compound solution, and the compound solution was stored at −80° C. The compound solution was diluted with DMSO in 2-fold dilution series (usually, in the range of 0.04 mmol/L to 10 mmol/L) to prepare test compound solutions whose concentration varied by two fold for luciferase assay.
Each solution of only DMSO (control) and the diluted test compound (sample) was dispensed into each well containing the cell suspension in an amount of 0.5 μL (200-fold dilution). The solution in each well was mixed with a vortex mixer, and then the 96-well plate was incubated in a CO2 incubator (at 37° C. and 5% CO2) for 48±4 hours. Luciferase Assay Substrate (hereinafter, referred to as “LAS”) supplied in Luciferase Assay Systems (Promega: Cat #E1500) was dissolved in Luciferase Assay Buffer (LAB) to prepare a luciferase reagent. 5× Cell Culture Lysis Reagent (hereinafter, referred to as “CCLR”) was diluted by 5 times with water to prepare 1×CCLR.
After the incubation for 48±4 hours, the medium in each well was completely removed, and 1×CCLR was dispensed into each well in an amount of 50 μL. The plate was allowed to stand at room temperature for 30 minutes, and then 1×CCLR in each well was used as an assay sample for luciferase and total protein amount. The luciferase reagent (100 μL) was placed in a tube for chemiluminescence measurement assay, and the assay sample (20 μL) was added into the tube and mixed with the luciferase reagent to measure chemiluminescence (Relative Luminescence Intensity: RLU) using GloMax 20/20 (Promega).
The above-mentioned assay sample (10 μL) was diluted by 10 times with water (90 μL). Each calibration curve sample was prepared by diluting the BSA solution with water as described in Table 1.
BCA reagent A and BCA reagent B (50:1) supplied in a kit for protein assay were mixed to prepare Working Reagent. Each of the calibration curve samples (Vials I to VI) and the 10-fold diluted assay samples was dispensed into each well of a 96-well plate in an amount of 25 μL, respectively. […]

Test [2] concerns PD-L1. Put plainly: Inhibitory effect of PD-L1 expression by cell staining with anti-PD-L1 antibody in IFN-γ-treated THP-1 cells (flow cytometry). Type of test: cell-based. The conditions noted are these: Homo sapiens, IFN-γ 25 ng/mL, 24±2 hours, subMFI anti-CD274-PC7, read-out: IC50 (50% PD-L1 expression inhibition concentration). On the procedure:
The inhibitory effects of each compound of Examples 1 to 6 on the PD-L1 expression were evaluated according to the following procedures.
(1) Acute monocytic leukemia cell-derived THP-1 cells were suspended in RPMI medium containing 10% FCS and 1% P/S (hereinafter, referred to as “RPMI medium”) at 5×10^5 cells/mL to obtain a cell suspension, and the cell suspension was dispensed into each well of a 6 well-plate in an amount of 3 mL. In order to activate the THP-1 cells and express PD-L1 in the cells, IFN-γ (PEPROTECH, Cat. No. 300-02-100UG, >2e+7 U/mg) was added into each well at a concentration of 25 ng/mL (>500 U/mL). 50 mmol/L of the test compound solution was diluted with the medium (usually, in the range of 0.025 mmol/L to 1 mmol/L), and the diluted solution was added into each well in an amount of 60 μL. The plate was incubated in a CO2 incubator (at 37° C. and 5% CO2) for 24±2 hours. In the control group, only DMSO was added in place of the test compound. (2) A part of the prepared cell culture liquid was collected and the number of cells therein was counted using a cell counter (BIORAD TC-20). The cell culture liquid was centrifuged at 300×g for 5 minutes and the supernatant of the cell culture liquid was removed. The cells were suspended in calcium and magnesium free phosphate buffered saline (PBS−) containing 1% bovine serum albumin (BSA) at a cell concentration of 1 to 2×10^7 cells/mL to prepare a cell suspension. (3) Each cell suspension prepared in the above step (2) were added into a 5 mL tube in an amount of 25 μL. 2 μL of 2% normal mouse serum/PBS− was added into tubes, and the tubes were gently pipetted. The tubes were then allowed to stand at room temperature for 15 minutes. (4) Anti-CD274-PC7 antibody (BECKMAN COULTER, Cat. No. A78884) or mouse IgG1-PC7 antibody (BECKMAN COULTER, 737662) as control was added in each tube in an amount of 10 μL, and the tubes were gently stirred. The tubes were then allowed to stand in the dark on an ice bath for 30 minutes. (5) Foxp3/Transcription Factor Fix/Perm Concentrate (4×) (Cat. No. TNB-1020-L050) (A solution) supplied in FOXP3/Transcription Factor Staining kit (TONBO biosciences) was diluted in Foxp3/Transcription Factor Fix/Perm Diluent (1×) (Cat. No. TNB-1022-L160) (A dilution solution) to prepare a 1×A solution. (6) The 1×A solution was added into each tube in an amount of 1 mL, and the tubes were gently pipetted and stirred. The tubes were then allowed to stand in the dark at room temperature for 30 minutes and centrifuged at 300×g for 5 minutes, and then the supernatants therein were removed. (7) 2 mL of 1% BSA/PBS− was added into each tube and the tubes were gently stirred and centrifuged at 300×g for 5 minutes, and then the supernatants therein were removed. (8) The cells therein were suspended in 0.5 mL of 1% BSA/PBS- and measured with a flow cytometer (Sony: Cell Sorter SH800) within 2 hours. The results were analyzed with a software, FlowJo (Tree Star Inc.). The mean peak fluorescence intensity (MFI) of PD-L1 and mean peak fluorescence intensity of IgG1 were calculated from histograms of the measured fluorescence intensity and number of cells, and the mean fluorescence intensity of IgG1 was subtracted from that of PD-L1 to calculate the subMFI. The experiments were performed in n=2.
The subMFI values of the control cells calculated by the FlowJo analysis and the cells cultured with the addition of the test compounds at each concentration (test cells) were input into an Excel file, and the percentages of the subMFI values of the test cells at each concentration to the average subMFI value of control cells were calculated. The regression line was determined from the percentages of the subMFI values of the test cells at each concentration by the method of least squares to calculate the 50% PD-L1 expression inhibition concentration (IC50 value) of each compound.

Drawing on patent US11591297B2, “Compound having PD-L1 expression-suppressing action” (TOHOKU UNIVERSITY, priority 2019, dated 2023), this text covers IC50 for three molecules.

Read-outs that look alike come from different tables or passages of the source.

For `O=C(Nc1ccc(Oc2ccc(C(F)(F)F)cc2)cc1)C1CCCN(C(=O)c2ccc(O)cc2)C1` (centres unmarked) [Example 1, 1-(4-Hydroxybenzoyl)-N-(4-(4-(trifluoromethyl)phenoxy)phenyl)piperidine-3-carboxamide], the IC50 stood at 1300 nM in test [1] (Homo sapiens) and 1900 nM in test [2].
For `O=C(Nc1ccc(Oc2ccc(S(F)(F)(F)(F)F)cc2)cc1)C1CCCN(C(=O)c2ccc(O)cc2)C1` (centres unmarked) [Example 4], in that order: 1200 nM and 1200 nM.
For the molecule “N-(3-(4-Chlorophenoxy)phenyl)-1-(4-hydroxyphenylcarbonyl) piperidine-3-carboxamide [Comparative Example 1, reference compound]”, the IC50 in test [1] stood at 14100 nM.
